Laboratory results reported in the SangsterLogP compilation.

Details: not given

Cc1c(Cl)ccc(OC(C)C(=O)Nc2ccccc2)c1Cl (stereo not given) and Cc1cccc(CC(=O)O)c1Nc1c(Cl)cccc1Cl are within 0.2 log units of each other in logP: 4.8 for the first, 4.93 for the second.

First: CCCSP(=S)(OCC)Oc1ccc(Cl)cc1Cl (stereo not given)
Second: CCOC(=O)CCCOc1ccc(Cl)cc1C
The logP of the first is higher: 4.92 for the first, 4.26 for the second.

First: CSc1nc2nc(Cl)ccc2[nH]1
Second: Cc1ccc2[nH]c(N)nc2c1
The logP of the first is higher: 2.39 for the first, 1.11 for the second.

First: Clc1cc(Cl)c2c(Cl)ccc(Cl)c2c1
Second: Clc1cc(Cl)c2cc(Cl)ccc2c1
The logP of the first is higher: 5.76 for the first, 5.35 for the second.

CC(C(=O)O)c1ccc(N2C(=O)C3CC=CCC3C2=O)cc1 (stereo not given) and CC(C(=O)O)c1ccc(N2C(=O)C3CCCCC3C2=O)cc1 (stereo not given) are within 0.2 log units of each other in logP: 2.27 for the first, 2.37 for the second.

Compared with CNC(=O)c1ccco1, CNC(=O)Oc1cccc2c1OC(C)(C)O2 is higher in logP: 0.23 for the first, 1.7 for the second.

Compared with O=[N+]([O-])Nc1ccccn1, O=[N+]([O-])c1ccccc1CO is higher in logP: -1.02 for the first, 1.24 for the second.

First: CCOc1cccc(Cl)n1
Second: COc1ccc([N+](=O)[O-])cn1
The logP of the first is higher: 2.55 for the first, 1.55 for the second.

Compared with N#CCc1cccc(Oc2ccccc2)c1, c1ccc(Cn2cccn2)cc1 is lower in logP: 3.03 for the first, 1.78 for the second.

Compared with O=C1C(Br)=C(N2CC2)C(=O)C(Br)=C1N1CC1, O=C1C(F)=C(N2CC2)C(=O)C(N2CC2)=C1N1CC1 is lower in logP: 2.03 for the first, 0.14 for the second.

Compared with Cc1nc(N(C)C)nc(OC(=O)N(C)C)c1C, CCOC(=O)N(C)C is lower in logP: 1.7 for the first, 0.89 for the second.

First: c1ccc(-c2cc3ccccc3[nH]2)nc1
Second: c1ccc(-c2ccncn2)cc1
The logP of the first is higher: 3.33 for the first, 1.92 for the second.

Compared with O=C(O)CCC(=O)c1ccc(N2Cc3ccccc3C2=O)cc1, O=C1c2ccccc2C(=O)N1c1ccccc1 is higher in logP: 1.92 for the first, 2.4 for the second.

Compared with COP(=S)(OC)SCC(=O)N(C)C=O, COC(=O)CCCCC(=O)OC is lower in logP: 1.48 for the first, 1.03 for the second.

First: O=C1CC(OC(=O)c2ccccc2)N1 (stereo not given)
Second: N#CCC(=O)c1ccccc1
The logP of the first is higher: 1.37 for the first, 0.97 for the second.

Going from C1=C(c2ccccc2)CCCC1 to c1ccc(-c2csnn2)cc1, the logP falls from 4.53 to 2.42.

Compared with O=C1CC(Sc2ccncc2)N1 (stereo not given), O=[N+]([O-])c1ccc(/C=C/c2ncc[nH]2)o1 is higher in logP: 0.61 for the first, 1.32 for the second.

Compared with O=S(=O)(CCl)c1ccccc1, Nc1ccccc1S(N)(=O)=O is lower in logP: 1.24 for the first, 0.22 for the second.

Compared with CCCCc1c(C)[nH]c(N(C)C)nc1=O, CCn1cc(C)c(=O)[nH]c1=O is lower in logP: 1.9 for the first, -0.15 for the second.

Going from O=C(O)c1ccc2c(c1)OCCOCCOCCOCCOCCO2 to CCOC(=O)CC(=O)C=Cc1ccc2c(c1)OCO2, the logP rises from -0.28 to 2.35.

Compared with C=C(C)Cl, CC(=O)C(C)(C)C is lower in logP: 2 for the first, 1.2 for the second.

c1ccc2c(c1)Cc1ccccc1S2 and O=[N+]([O-])c1ccc(Nc2ccccc2)cc1 are within 0.2 log units of each other in logP: 3.86 for the first, 3.74 for the second.

Going from CC(=O)Nc1ncc([N+](=O)[O-])s1 to Nc1c([N+](=O)[O-])cccc1[N+](=O)[O-], the logP rises from 1.3 to 1.79.

Compared with CC(C)CN(C)CC(C)C, CC(C)SC(C)C is higher in logP: 2.34 for the first, 2.84 for the second.

Going from CC(C)(C)NC(=O)[C@H]1CC[C@H]2[C@@H]3CC[C@H]4NC(=O)C=C[C@]4(C)[C@H]3CC[C@]12C to CN(C)C(=O)C12CC3CC(CC(C3)C1)C2, the logP falls from 3.03 to 2.55.

Going from NC(=O)Nc1nc(-c2ccccc2)no1 to Cc1ccc(-c2noc(C)n2)cc1, the logP rises from 1.76 to 2.74.

Cn1cccn1 and C=CCn1cccn1 are within 0.2 log units of each other in logP: 0.23 for the first, 0.35 for the second.

Going from CC(C)=NOCCOC(=O)[C@@H](C)Oc1ccc(Oc2cnc3cc(Cl)ccc3n2)cc1 to CON=C(Cc1cccnc1)c1ccc(Cl)cc1Cl, the logP falls from 4.6 to 2.51.

First: O=C1C=CC(=O)C(Cl)=C1
Second: O=C1C=C(Br)C(=O)c2ccccc21
The logP of the first is lower: 0.84 for the first, 2.44 for the second.

Going from N#C/C=C/C#N to N#CC#N, the logP rises from -0.25 to 0.07.

First: COC(=O)c1cc(Cl)ccc1N
Second: COC(=O)c1ccccc1N
The logP of the first is higher: 3.3 for the first, 1.88 for the second.

First: CC(C)Cc1cc([N+](=O)[O-])cc(C(C)C)c1O
Second: Nc1cc([N+](=O)[O-])cc([N+](=O)[O-])c1
The logP of the first is higher: 4.19 for the first, 1.89 for the second.

Going from CC1(C)CNC(=NN=C(C=Cc2ccc(C(F)(F)F)cc2)C=Cc2ccc(C(F)(F)F)cc2)NC1 to Cc1c(COC(=O)[C@@H]2[C@H](/C=C(\Cl)C(F)(F)F)C2(C)C)cccc1-c1ccccc1, the logP rises from 2.31 to 6.

First: C=CCCC=C
Second: OCC=CCO
The logP of the first is higher: 2.87 for the first, -0.81 for the second.

Going from CN(C)N=Nc1cccc2oc3ccccc3c12 to CN(C)c1ccc(C(=O)c2ccc(N(C)C)cc2)cc1, the logP falls from 4.55 to 3.87.

Going from NC(=O)CCOc1ccccc1 to CCOC(=O)CC(=O)c1ccccc1, the logP rises from 0.8 to 1.87.

First: CC(C)c1ccccc1N
Second: Cn1c(N)nc2ccccc21
The logP of the first is higher: 2.12 for the first, 0.95 for the second.

First: C=CCOC1=NS(=O)(=O)c2ccccc21
Second: C=CCSc1ccccc1
The logP of the first is lower: 1.4 for the first, 3.51 for the second.

First: CCC(C(N)=O)(C(N)=O)c1ccccc1
Second: CC(O)Cc1ccccc1 (stereo not given)
The logP of the first is lower: 0.13 for the first, 1.97 for the second.

CC1NC(=O)C(CC(=O)N[C@@H](Cc2c[nH]c3ccccc23)C(=O)N[C@@H](Cc2ccccc2)C(=O)N(C)Cc2ccccc2)NC1=O (stereo not given in full) and CN(C)C(CSS(=O)(=O)c1ccccc1)CSS(=O)(=O)c1ccccc1 are within 0.2 log units of each other in logP: 3.18 for the first, 3.36 for the second.

Going from COC(=O)C(F)(F)F to NC(=O)CCNC(=O)C(F)(F)Cn1cncc1[N+](=O)[O-], the logP falls from 0.6 to -0.95.

First: N#Cc1sc2c(=O)c3ccccc3c(=O)c=2sc1C#N
Second: Cn1c(=O)sc2ccccc21
The logP of the first is higher: 2.84 for the first, 1.98 for the second.

Compared with CCc1cccc(C)c1NC(=O)OC(C)C, COC(=O)Nc1c(C)cccc1C is lower in logP: 2.52 for the first, 1.69 for the second.

Going from COc1ccccc1C(C)=O to COCCOc1ccccc1OCCOC, the logP falls from 1.82 to 1.12.

Compared with Cc1cccc(C)c1N, Nc1ccc(S)cc1 is lower in logP: 1.84 for the first, 1.31 for the second.

Going from BrCCCBr to OCCCO, the logP falls from 2.37 to -1.04.

First: BrC(Br)(Br)Br
Second: CC(C)(C)Br
The logP of the first is higher: 3.42 for the first, 1.15 for the second.

Going from CC(=O)Oc1ccc(N)cc1 to Cc1ccc(/C=N/O)cc1, the logP rises from 0.45 to 2.4.

CN1CCCC1=O and O=C1C=CCO1 are within 0.2 log units of each other in logP: -0.54 for the first, -0.6 for the second.

Going from S=C(N/N=C/c1ccc[nH]1)Nc1ccccc1 to Cn1cccc1C=NNC(=O)Nc1ccccc1, the logP falls from 3.73 to 2.71.

Going from N#Cc1ccncc1C#N to Cn1c(N)nc2ccc(C#N)cc21, the logP rises from 0.24 to 1.29.

First: ClCC#CCCl
Second: CS(=O)(=O)CC#N
The logP of the first is higher: 2.01 for the first, -1.42 for the second.

CNCCN(C)C and CNC(=O)CNC(=O)CCc1ccc(S(=O)(=O)N(C)C)cc1 are within 0.2 log units of each other in logP: -0.2 for the first, -0.35 for the second.

Compared with CCN(CC)c1c([N+](=O)[O-])cc(C(F)(F)F)c(N)c1[N+](=O)[O-], Cc1ccc(C(=O)COc2c(C(=O)c3ccc(Cl)c(C)c3Cl)c(C)nn2C)cc1 is higher in logP: 4.3 for the first, 4.69 for the second.

First: C1=COCCC1
Second: N#CC1CC1
The logP of the first is higher: 0.69 for the first, 0.29 for the second.

Going from Cn1ccc(=O)n(C)c1=O to COC(=O)CCCCCC(=O)OC, the logP rises from -0.54 to 1.38.

In the case of CCOC(=O)C(C(=O)OCC)=C(C(=O)OCC)C(=O)OCC, the logP is reported as 2.63.

Same assay, conditions: pH 1.0

First: N#CCC(=O)O
Second: O=C(O)/C=C/c1ccc([N+](=O)[O-])cc1
The logD of the first is lower: -0.76 for the first, 2.12 for the second.

For Cn1nnnc1SCC1=C(C(=O)O)N2C(=O)[C@@H](NC(=O)[C@H](O)c3ccccc3)[C@H]2SC1, the logD was 0.25.

Same assay, conditions: pH 2.1

First: CCCCCCOc1ccc(S(N)(=O)=O)cc1
Second: CC(=O)c1cccc(S(N)(=O)=O)c1
The logD of the first is higher: 2.93 for the first, 0.25 for the second.

Same assay, conditions: pH 3.5

Work on C1CCC(Cc2nnn[nH]2)CC1 yielded a logD of 1.59.

Same assay, conditions: pH 4.0

Going from O=[N+]([O-])c1cc(C(F)(F)F)cc([N+](=O)[O-])c1NN=C(C(F)(F)F)C(F)(F)F to O=[N+]([O-])c1ccc(NN=C(C(F)(F)F)C(F)(F)F)c(C(F)(F)F)c1, the logD rises from 3.6 to 4.6.

Same assay, conditions: pH 7.0

First: S=c1nc(-c2ccccc2)[nH][nH]1
Second: CCC1COC(Cn2cncn2)(c2ccc(-n3cncn3)cc2Cl)O1 (stereo not given)
The logD of the first is higher: 1.84 for the first, 1.28 for the second.

Compared with Nc1nc(Cl)c2ncn([C@@H]3O[C@H](CO)C[C@@H]3F)c2n1, Clc1ccc(C2(Cn3cncn3)OCC3(CCC4OC4C3)CO2)c(Cl)c1 (stereo not given) is higher in logD: 0.28 for the first, 1.87 for the second.

In the case of CC1(C)COC(Cn2cncn2)(c2ccc(-n3ccnc3)cc2Cl)OC1, the logD is reported as 2.26.

Same assay, conditions: pH 7.1

With CSCCC(NC(C)=O)C(N)=O (stereo not given) the logD was -0.6.

Same assay, conditions: pH 7.4

Compared with CCc1ncc([N+](=O)[O-])n1C, CSc1ncc([N+](=O)[O-])n1C is higher in logD: 0.62 for the first, 0.94 for the second.

First: CNc1nc2c3cccnc3ccc2n1C
Second: Clc1cccc2cccnc12
The logD of the first is lower: 1.82 for the first, 2.44 for the second.

Compared with Cn1cc(-c2ccccc2)c(=O)c(-c2cccc(C(F)(F)F)c2)c1, Cc1cc2c3ccccc3nc-2[nH]c1N is lower in logD: 3.16 for the first, 2.9 for the second.

Going from Cc1ccc(C=Cc2ncc([N+](=O)[O-])n2C)cc1 to Cc1ccc(C=Cc2ncc([N+](=O)[O-])n2CO)cc1, the logD rises from 1.64 to 2.25.

Compared with O=C1Nc2ccccc2C1=O, Cc1[nH]ccc2c1[nH]c1cc(=O)ccc12 is higher in logD: 0.83 for the first, 2.18 for the second.

Compared with COC(=S)NCCn1c([N+](=O)[O-])cnc1C, CCOC(=S)NCCn1c([N+](=O)[O-])cnc1C is higher in logD: 1.09 for the first, 1.5 for the second.

Compared with CC(C)Cn1c(=O)n(C)c(=O)c2[nH]c(CCN3CCN(C(c4ccc(F)cc4)c4ccc(F)cc4)CC3)nc21, Cn1c([N+](=O)[O-])cnc1-c1ccc(F)cc1 is lower in logD: 4.16 for the first, 1.83 for the second.

Cn1c([N+](=O)[O-])cnc1COc1ccc(Cl)cc1 and Cn1cc2ccc([N+](=O)[O-])cc2n1 are within 0.2 log units of each other in logD: 1.8 for the first, 1.76 for the second.

Going from CC(C)c1ccc([N+](=O)[O-])cc1 to Cc1nc([N+](=O)[O-])cn1COCCS(C)(=O)=O, the logD falls from 3.45 to -0.84.

Work on c1csc(C23CCCN2CCO3)c1 (stereo not given) yielded a logD of 1.05.

Same assay, conditions: pH 8.4

With Cn1ccnc1 the logD was -0.06.

Same assay, conditions: pH 13.0

First: NC(=O)COc1ccccc1Cc1nc(N)cc(N)n1
Second: Nc1ncc(Cc2ccccc2Cl)c(N)n1
The logD of the first is lower: -0.34 for the first, 2.24 for the second.

Going from OCCNCc1ccccc1 to c1ccc(C23CCN(CC2)CC3)cc1, the logD rises from 0.79 to 2.54.

Going from CN1CCN(C)CC1 to NCCN1CCCC1, the logD rises from -0.4 to 0.08.

Compared with NNc1ccc([N+](=O)[O-])cc1, N=C(N)c1cccc([N+](=O)[O-])c1 is lower in logD: 1.41 for the first, 0.72 for the second.

Compared with CC(C)(C)NCCO, CCOC(CC)(OCC)OCC is higher in logD: 0.41 for the first, 1.97 for the second.

Compared with CC(C)(C)N(CC(O)COc1ccccc1)CC(O)COc1ccccc1 (stereo not given), CCOC(OCC)OCC is lower in logD: 3.99 for the first, 1.2 for the second.

With CCc1cc(Cc2cnc(N)nc2N)cc(CC)c1N the logD was 1.82.
